Test results from the Deep4Chem optical property database.
Values belong to the compound of their own block, whether it stands above or below them.

Assay: photoluminescence quantum yield (fraction); solvent given as SMILES

photoluminescence quantum yield (in CCO): 0.064
photoluminescence quantum yield (in ClCCl): 0.157
photoluminescence quantum yield (in O): 0.014
Structure (SMILES): CC[N+](CC)=c1ccc2c(C(F)(F)F)c3oc4cc(N)ccc4c3oc-2c1

photoluminescence quantum yield (in ClCCl): 0.15
Structure (SMILES): Cn1cc(-c2nc3ccccc3nc2C#Cc2ccc(C#N)cc2)c2ccccc21

photoluminescence quantum yield (in CC#N): 0.41
Structure (SMILES): CCOC(=O)c1c2c3c(ccc([N+](=O)[O-])c3c3cc4ccccc4cc13)N(C)C2=O

photoluminescence quantum yield (in C1CCOC1): 0.529
Structure (SMILES): CCCCCOc1ccc2c(c1)c1ccc3cccc4c5cccc6oc(=O)c2c(c65)c1c34

photoluminescence quantum yield (in C1CCCCC1): 0.32
photoluminescence quantum yield (in CC#N): 0.28
Structure (SMILES): C=Cc1cccc(OC)c1

photoluminescence quantum yield (in C1CCCCC1): 0.12
Structure (SMILES): c1ccc(-c2cc3cccc4cc(-c5ccccc5)c5cc(-c6cc7[b-]8c(c6)c(-c6ccccc6)cc6cccc(cc7-c7ccccc7)[n+]86)cc2[b-]5[n+]34)cc1

photoluminescence quantum yield (in CCO): 0.15
Structure (SMILES): CCOC(=O)c1cc(C(=O)O)nc2cc(OC)ccc12

Structure (SMILES): O=C1c2ccc3c4ccc5c6c(ccc(c7ccc(c2c37)C(=O)N1c1ccncc1)c64)C(=O)N(c1ccncc1)C5=O
photoluminescence quantum yield (in C1CCOC1): 0.508
photoluminescence quantum yield (in C1COCCO1): 0.847
photoluminescence quantum yield (in CC(C)=O): 0.758
photoluminescence quantum yield (in CC(C)O): 0.454
photoluminescence quantum yield (in CCCCO): 0.46
photoluminescence quantum yield (in CCO): 0.201
photoluminescence quantum yield (in CCOC(C)=O): 0.337
photoluminescence quantum yield (in CN(C)C=O): 0.438
photoluminescence quantum yield (in CO): 0.206
photoluminescence quantum yield (in CS(C)=O): 0.057
photoluminescence quantum yield (in ClC(Cl)(Cl)Cl): 0.97
photoluminescence quantum yield (in ClC(Cl)Cl): 0.97

photoluminescence quantum yield (in CC#N): 0.38
photoluminescence quantum yield (in ClCCl): 0.53
Structure (SMILES): COC(=O)c1cc(=O)n(C)c2cc(-c3cc(OC)c(OC)c(OC)c3)sc12

photoluminescence quantum yield (in ClC(Cl)Cl): 0.55
Structure (SMILES): N#Cc1ccc(Oc2ccc3c4c(cccc24)C(=O)N(CCO)C3=O)cc1

photoluminescence quantum yield (in CC1CCCCC1): 0.01
photoluminescence quantum yield (in CC#N): 0.05
photoluminescence quantum yield (in CO): 0.18
photoluminescence quantum yield (in O): 0.22
Structure (SMILES): COC(=O)C([NH3+])Cc1ccc2oc(-c3ccncc3)nc2c1 (stereo unspecified)

photoluminescence quantum yield (in C1CCOC1): 0.34
photoluminescence quantum yield (in ClCCl): 0.39
Structure (SMILES): CCCCCCCc1cc2c(o1)=CC1=C3c4cc5oc(CCCCCCC)cc5n4[B-](F)(F)[n+]4nnn(c43)[B-](F)(F)[N+]=21

photoluminescence quantum yield (in CO): 0.0103
Structure (SMILES): C(C1=[NH+]c2cccc3cccc1c23)=c1[nH]c2cccc3cccc1c32

photoluminescence quantum yield (in CS(C)=O): 0.64
photoluminescence quantum yield (in O): 0.76
Structure (SMILES): Cn1c2ccc(S(=O)(=O)O)cc2c(=O)c2cc(S(=O)(=O)O)ccc21

photoluminescence quantum yield (in ClC(Cl)Cl): 0.11
Structure (SMILES): COc1ccc2c(c1)SCC1=C(c3ccccc3)C3=Nc4c(-c5ccccc5)c5c(n4[B-](F)(F)[N+]3=C12)-c1ccc(OC)cc1SC5

photoluminescence quantum yield (in ClC(Cl)Cl): 0.42
Structure (SMILES): COc1ccc(C2=[N+]3C(=C(c4ccc(I)cc4)c4ccc(-c5ccc(OC)cc5)n4[B-]3(F)F)C=C2)cc1

Structure (SMILES): Cn1cc(/C=C/C(=O)c2ccccc2)c2ccccc21
photoluminescence quantum yield (in C1CCOC1): 0.1
photoluminescence quantum yield (in C1COCCO1): 0.114
photoluminescence quantum yield (in CC#N): 0.343
photoluminescence quantum yield (in CC(C)=O): 0.329
photoluminescence quantum yield (in CC(C)O): 0.231
photoluminescence quantum yield (in CCC(=O)CC): 0.209
photoluminescence quantum yield (in CCCC#N): 0.217
photoluminescence quantum yield (in CCCC(C)=O): 0.22
photoluminescence quantum yield (in CCCCCCCCO): 0.345
photoluminescence quantum yield (in CCCCCCO): 0.428
photoluminescence quantum yield (in CCCCO): 0.333
photoluminescence quantum yield (in CCCO): 0.5
photoluminescence quantum yield (in CCO): 0.173
photoluminescence quantum yield (in CN(C)C=O): 0.245
photoluminescence quantum yield (in CO): 0.162
photoluminescence quantum yield (in CS(C)=O): 0.62
photoluminescence quantum yield (in ClC(Cl)Cl): 0.14
photoluminescence quantum yield (in ClCCl): 0.394
photoluminescence quantum yield (in NC=O): 0.277
photoluminescence quantum yield (in O): 0.12
photoluminescence quantum yield (in OC1CCCCC1): 0.778

Structure (SMILES): c1ccc2c(c1)[nH]c1cccnc12
photoluminescence quantum yield (in C1CCCCC1): 0.145
photoluminescence quantum yield (in C1CCOC1): 0.081
photoluminescence quantum yield (in C1COCCO1): 0.122
photoluminescence quantum yield (in CCO): 0.129
photoluminescence quantum yield (in CN(C)C=O): 0.079
photoluminescence quantum yield (in Cc1ccccc1): 0.099
photoluminescence quantum yield (in ClC(Cl)Cl): 0.124
photoluminescence quantum yield (in Clc1ccccc1): 0.119

photoluminescence quantum yield (in ClCCl): 0.33
Structure (SMILES): CCCCN(CCCC)c1ccc2c#cc3cc4c#cc5ccc(C(F)(F)F)cc5c#cc#cc5cc(N(CCCC)CCCC)ccc5c#cc4cc3c#cc3ccc(C(F)(F)F)cc3c#cc#cc2c1

photoluminescence quantum yield (in ClCCl): 0.26
Structure (SMILES): COc1ccc(-c2cnc3cccc(-c4ccccc4)n23)cc1

photoluminescence quantum yield (in C1CCOC1): 0.7
photoluminescence quantum yield (in C1COCCO1): 0.75
photoluminescence quantum yield (in CC#N): 0.65
photoluminescence quantum yield (in CC(C)O): 0.57
photoluminescence quantum yield (in CCO): 0.5
photoluminescence quantum yield (in CCOC(C)=O): 0.75
photoluminescence quantum yield (in CN(C)C=O): 0.68
photoluminescence quantum yield (in CO): 0.38
photoluminescence quantum yield (in CS(C)=O): 0.69
photoluminescence quantum yield (in O): 0.56
Structure (SMILES): NS(=O)(=O)c1ccc(N2N=C(c3ccc(O)cc3)CC2c2ccc(Br)cc2)cc1 (stereo unspecified)

photoluminescence quantum yield (in C1CCCCC1): 0.01
Structure (SMILES): Cc1ccccc1-c1ccccc1C

photoluminescence quantum yield (in ClCCl): 0.157
Structure (SMILES): CCCCCCCCCCCCN1C(=O)c2c(c3ccc4cc(-c5ccc(C=O)cc5)c(OC)cc4c3c3c2ccc2cc(-c4ccc(C=O)cc4)c(OC)cc23)C1=O

photoluminescence quantum yield (in ClCCl): 0.93
Structure (SMILES): F[B-]1(F)n2c(c3ccccc3c2-c2ccccc2)C(c2ccccc2)=C2c3ccccc3C(c3ccccc3)=[N+]21

Structure (SMILES): C=C(C)C(CN1C(=O)c2cccc3c2c(cc2nc(C)oc23)C1=O)OO (stereo unspecified)
photoluminescence quantum yield (in CCO): 0.061

photoluminescence quantum yield (in CCO): 0.4
photoluminescence quantum yield (in ClCCl): 0.51
Structure (SMILES): c1ccc(-c2c3ccccc3c(-c3cncnc3)c3ccccc23)cc1

photoluminescence quantum yield (in CCO): 0.013
Structure (SMILES): CN(C)c1ccc2c(C(=O)NCc3ccccc3)cc(C(=O)[O-])nc2c1

photoluminescence quantum yield (in CN(C)C=O): 0.95
Structure (SMILES): COCCC1(CCOC)c2cc(-c3ccc(OC)cc3)ccc2-c2ccc(-c3ccc4c(c3)C(CCOC)(CCOC)c3cc(-c5ccc(OC)cc5)ccc3-4)cc21

Structure (SMILES): COc1ccc2c3ccc(OC)cc3n(-c3ccc(-c4nnc(C)o4)cc3)c2c1
photoluminescence quantum yield (in Cc1ccccc1): 0.06

photoluminescence quantum yield (in CN(C)C=O): 0.98
Structure (SMILES): O=C1NC(=O)c2ccc3c4ccc5c6c(ccc(c7ccc1c2c73)c64)C(=O)N(c1ccc(Cl)cc1)C5=O

photoluminescence quantum yield (in ClCCl): 0.65
Structure (SMILES): CN(C)c1ccc(/C=C/c2cnc(-c3ccncc3)o2)cc1

photoluminescence quantum yield (in ClC(Cl)Cl): 0.01
Structure (SMILES): CN(c1ccccc1)c1ccc(-c2ccc(-c3ccc(N(C)c4ccccc4)cc3)c3nc(-c4ccccc4)c(-c4ccccc4)nc23)cc1

Structure (SMILES): CC(C)(C)c1ccc2c(c1)c1cc(C(C)(C)C)ccc1n2-c1ccc(S(=O)(=O)c2ccc(-n3c4ccc(C(C)(C)C)cc4c4cc(C(C)(C)C)ccc43)cn2)nc1
photoluminescence quantum yield (in O=P(c1ccccc1)(c1ccccc1)c1ccc2sc3cccc(P(=O)(c4ccccc4)c4ccccc4)c3c2c1): 0.62

Structure (SMILES): Cc1ccc(C2=C3C=CC(Cl)=[N+]3[B-](F)(F)n3c(Cl)ccc32)cc1
photoluminescence quantum yield (in C1CCCCC1): 0.33
photoluminescence quantum yield (in C1CCOC1): 0.3
photoluminescence quantum yield (in CC#N): 0.29
photoluminescence quantum yield (in CCOC(C)=O): 0.32
photoluminescence quantum yield (in CO): 0.27
photoluminescence quantum yield (in Cc1ccccc1): 0.59
photoluminescence quantum yield (in ClC(Cl)Cl): 0.63

Structure (SMILES): CC(C)(C)c1ccc2c(c1)c1cc(C(C)(C)C)ccc1n2-c1ccc(C#Cc2ccc(C#Cc3ccc(-n4c5ccc(C(C)(C)C)cc5c5cc(C(C)(C)C)ccc54)cc3)cc2)cc1
photoluminescence quantum yield (in CC#N): 0.67
photoluminescence quantum yield (in CCCCC): 0.89
photoluminescence quantum yield (in CO): 0.41
photoluminescence quantum yield (in Cc1ccccc1): 0.86
photoluminescence quantum yield (in ClC(Cl)Cl): 0.69
photoluminescence quantum yield (in ClCCl): 0.89

Structure (SMILES): Cc1cc(C(F)(F)F)nc2c1ccc1nc(-c3ccc(Cl)cc3)cn12
photoluminescence quantum yield (in CC#N): 0.84
photoluminescence quantum yield (in CCCCOC(C)=O): 0.76
photoluminescence quantum yield (in CCOC(C)=O): 0.9
photoluminescence quantum yield (in CO): 0.78
photoluminescence quantum yield (in ClC(Cl)Cl): 0.64
photoluminescence quantum yield (in c1ccccc1): 0.88

photoluminescence quantum yield (in CC#N): 0.46
photoluminescence quantum yield (in CO): 0.35
photoluminescence quantum yield (in ClCCl): 0.86
Structure (SMILES): COC(=O)c1ccc(O)c(-c2[nH]c(=O)n3c2-c2ccccc2C3=O)c1

photoluminescence quantum yield (in ClCCl): 0.28
Structure (SMILES): Cc1cc(C)c(-c2cc(-c3c(C)cc(C)cc3C)c3ccc4c(-c5c(C)cc(C)cc5C)cc(-c5c(C)cc(C)cc5C)c5ccc2c3c54)c(C)c1

photoluminescence quantum yield (in C1CCOC1): 0.31
photoluminescence quantum yield (in CO): 0.24
Structure (SMILES): CCOC(=O)C1=CN(Cc2ccccc2)C=C(C(=O)OCC)C1

photoluminescence quantum yield (in CC#N): 0.36
photoluminescence quantum yield (in CCOC(C)=O): 0.39
photoluminescence quantum yield (in CO): 0.27
Structure (SMILES): COC(=O)C[C@H](NC(=O)[C@H](Cc1c[nH]c2ccccc12)NC(=O)OC(C)(C)C)C(=O)OC

photoluminescence quantum yield (in ClCCl): 0.55
Structure (SMILES): CC(C)(C)c1ccc2c(c1)c1cc(C(C)(C)C)ccc1n2-c1ccc(N(c2ccc(-c3ccc(N(c4ccc(-n5c6ccc(C(C)(C)C)cc6c6cc(C(C)(C)C)ccc65)cc4)c4ccc(-n5c6ccc(C(C)(C)C)cc6c6cc(C(C)(C)C)ccc65)cc4)cc3)cc2)c2ccc(-n3c4ccc(C(C)(C)C)cc4c4cc(C(C)(C)C)ccc43)cc2)cc1

Structure (SMILES): c1ccc(-c2nc(-c3ccc(N4c5ccccc5C(c5ccccc5)(c5ccccc5)c5ccccc54)cc3)cc(-c3ccccn3)n2)cc1
photoluminescence quantum yield (in O=P(c1ccccc1)(c1ccccc1)c1ccccc1Oc1ccccc1P(=O)(c1ccccc1)c1ccccc1): 0.83

photoluminescence quantum yield (in CCCCCC): 0.96
photoluminescence quantum yield (in CO): 1
photoluminescence quantum yield (in ClCCl): 0.89
Structure (SMILES): CC1=C2C=CC(C)=[N+]2[B-](F)(F)n2cccc21

photoluminescence quantum yield (in C1CCCCC1): 0.32
photoluminescence quantum yield (in CC#N): 0.29
Structure (SMILES): C=Cc1ccc(OC)c(OC)c1

photoluminescence quantum yield (in ClCCl): 0.01
Structure (SMILES): CN(C)c1ccc(-c2cc3c(s2)c(C(=O)c2ccccc2)cc(=O)n3Cc2ccccc2)cc1

photoluminescence quantum yield (in ClCCl): 0.05
Structure (SMILES): CC1=C(C2=C(C)C(C)=[N+]3C2=Cc2cc(C)c(C)n2[B-]3(F)F)C2=Cc3cc(C)c(C)n3[B-](F)(F)[N+]2=C1C

Structure (SMILES): CCCCOc1ccc(-c2oc3cc4n(c3c2-c2ccc(OCCCC)cc2)[B-](F)(F)[N+]2=Cc3cc5oc(-c6ccc(OCCCC)cc6)c(-c6ccc(OCCCC)cc6)c5n3[B-](F)(F)[N+]2=C4)cc1
photoluminescence quantum yield (in C1CCOC1): 0.44
photoluminescence quantum yield (in CN(C)C=O): 0.32
photoluminescence quantum yield (in CS(C)=O): 0.31
photoluminescence quantum yield (in Cc1ccccc1): 0.42
photoluminescence quantum yield (in ClC(Cl)Cl): 0.43
photoluminescence quantum yield (in ClCCl): 0.43

photoluminescence quantum yield (in ClCCl): 0.062
Structure (SMILES): COc1ccc2oc(=N)c(C#N)cc2c1

Structure (SMILES): O=C(O)CCCc1cc(C#Cc2ccccc2)c2ccc3c(C#Cc4ccccc4)cc(C#Cc4ccccc4)c4ccc1c2c34
photoluminescence quantum yield (in CS(C)=O): 0.72
photoluminescence quantum yield (in ClC(Cl)(Cl)Cl): 0.56
